The numbers were not newly measured in US20170095494A1, “Process for the Extraction of Strawberry P-Coumaroyl Hexose and/or Polyphenols, Extract and Uses Thereof” (Nutra Canada Inc., priority 2014, published 2017), which cites them from elsewhere.

Molecules are shown by their SMILES.

The data set relates to AMPK. Particulars: Bhattacharya et al, 2013, Yoon et al.

Regarding `O=C(O)/C=C/c1ccc(O)cc1` [p-coumaric acid], the “impact on AMPK and glucose uptake in muscle cells” value is on record as “increased glucose uptake”.
